According to patent publication US12617772B2, “Hydroxypyridine HSD17B13 inhibitors and uses thereof” (INIPHARM, INC., priority 2021, dated 2026):

These molecules were tested against T1, HSD17B13 (Homo sapiens, UniProt Q7Z5P4) (assay: LC/MS estrone detection assay: conversion of estradiol to estrone by HSD17B13). Conditions: 4 μM estradiol, 6 mM NAD, 30 nM HSD17B13 enzyme (E. coli expressed His-tagged), 2 hours at 26.5° C.
T1 construct: His; made in house; host or cells: E. coli
T1 sequence (Q7Z5P4 20-300): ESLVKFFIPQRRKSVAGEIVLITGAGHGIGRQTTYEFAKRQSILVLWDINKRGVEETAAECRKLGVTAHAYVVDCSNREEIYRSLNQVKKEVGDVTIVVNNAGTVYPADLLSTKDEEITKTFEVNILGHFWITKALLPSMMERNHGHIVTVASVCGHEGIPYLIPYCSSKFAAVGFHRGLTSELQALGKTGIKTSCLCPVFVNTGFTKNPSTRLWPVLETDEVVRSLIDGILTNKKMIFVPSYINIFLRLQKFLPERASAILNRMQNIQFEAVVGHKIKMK
Format: biochemical
Description: Example A: Estrone Detection Assay for Evaluation of HSD17ß13 Activity and Identification of Inhibitors
The liquid chromatography/mass spectrometry (LC/MS) estrone detection assay monitors the conversion of estradiol to estrone by HSD17B13. This assay was undertaken in a 96 wp format (Eppendorf deep well Plate 96/500) in an 80 μl reaction volume containing: 4 μM of Estradiol (E2; Cayman; #10006315), 6 mM NAD (Sigma; #N0623) and 30 nM HSD17B13 enzyme (in-house; E. coli expressed His-tagged, purified, soluble protein) in a reaction containing […] potassium phosphate buffer pH 7.4, with 0.5% vehicle (DMSO). Reactions were incubated for 2 hours at 26.5° C., and estradiol (E2) conversion to estrone (E1) was quantitated by LC-MS/MS based analyte detection for both E2 and E1 using LCMS grade reagents.
Reactions were terminated by the addition of two volumes of acetonitrile (MeCN: LCMS grade; CAS #75/05/8) containing deuterated (D4)-E1 used as internal standard (Clear Synth: #CS-T-54273; 500 ng/ml final concentration). Samples were applied to pre-prepared Bond Elut-C18 extraction cartridges (3 mL; Agilent; #12102028), washed and eluted in MeCN. Eluates were dried under nitrogen and re-suspended in 60% methanol (LCMS grade methanol; CAS #67/56/1) before submission for analysis. Aqueous linearity for E2 and E1 were included for quantification.
Analysis of samples was undertaken on a XBridge BEH C18 column (Waters; #186003033) using 0.1% Diethyl Amine in MeCN (mobile phase A; DEA CAS #109-89-7) and 0.1% Diethyl Amine in milli-Q water (mobile phase B) in a 3 min gradient allowing 25% B. Analytes were detected in negative mode using MRM analysis, with E2 having a RT of 1.85 min and E1 having a RT of 2 min. Activity of the enzyme, in the absence of NAD^+, was used to evaluate specificity of conversion. Enzyme activity in the presence of test samples was expressed as a percentage of the uninhibited enzyme activity, and plotted versus inhibitor concentration. Non-linear regression was performed using a four-parameter logistic model and GraphPad Prism software (GraphPad Software, La Jolla, CA). All assessments were undertaken in duplicate evaluations and pooled during extraction process and subsequently injected as duplicates for LC-MS/MS analysis.

IC50 [µM]	SMILES
≤ 0.1	O=C(Nc1cccc2ncn(CCc3ccccc3OC(F)(F)F)c(=O)c12)c1ccc(O)c(C(F)(F)F)n1 [Example 1, 5-hydroxy-N-(4-oxo-3-(2-(trifluoromethoxy)phenethyl)-3,4-dihydroquinazolin-5-yl)-6-(trifluoromethyl)picolinamide]
≤ 0.1	O=C(Nc1cccc2ncn(Cc3ccccc3OC(F)(F)F)c(=O)c12)c1ccc(O)c(C(F)(F)F)n1 [Example 3, 5-hydroxy-N-(4-oxo-3-{[2-(trifluoromethoxy)phenyl]methyl}-3,4-dihydroquinazolin-5-yl)-6-(trifluoromethyl) pyridine-2-carboxamide]

Continued, molecule first:

SMILES	IC50 [µM]
O=C(Nc1cccc2ncn(CCc3ccccc3C(F)(F)F)c(=O)c12)c1ccc(O)c(C(F)(F)F)n1 [Example 2, 5-hydroxy-N-(4-oxo-3-(2-(trifluoromethyl)phenethyl)-3,4-dihydroquinazolin-5-y1)-6-(trifluoromethyl)picolinamide]	0.1 to 0.5
CC(C)(C)CCNC(=O)c1sccc1NC(=O)c1ccc(O)c(C(F)(F)F)n1 [Example 5, N-(2-((3,3-dimethylbutyl)carbamoyl)thiophen-3-y1)-5-hydroxy-6-(trifluoromethyl) picolinamide]	≤ 0.1
COc1ccccc1CCn1cnc2cccc(NC(=O)c3ccc(O)c(C(F)(F)F)n3)c2c1=O [Example 6, 5-hydroxy-N-(3-(2-methoxyphenethyl)-4-oxo-3,4-dihydroquinazolin-5-yl)-6-(trifluoromethyl) picolinamide]	≤ 0.1
O=C(Nc1cc(Cl)sc1C(=O)NCCc1ccccc1OC(F)(F)F)c1ccc(O)c(C(F)(F)F)n1 [Example 7, N-(5-chloro-2-((2-(trifluoromethoxy)phenethyl)carbamoyl)thiophen-3-y1)-5-hydroxy-6-(trifluoromethyl)picolinamide]	0.1 to 0.5
